# Laboratory results from patent US20040204463A1, “N-aryl-2-oxazolidinone-5-carboxamides and their derivatives” (priority 2003, published 2004).
# Key:
# [1] = tested on: HINF 30063; assay: In vitro MIC by standard agar dilution method, HINF 30063; format: cell-based, H. influenzae; details: Haemophilus influenzae; agar dilution, Mueller Hinton agar, incubated overnight at 35° C.; lowest concentration that inhibits visible growth; read-out: HINF 30063 MIC (Minimum Inhibitory Concentration)
# Excerpt: (§1) The oxazolidinone antibacterial agents of this invention have useful activity against a variety of organisms. The in vitro activity of compounds of this invention can be assessed by standard testing procedures such as the determination of minimum inhibitory concentration (MIC) by agar dilution as described in “Approved Standard. Methods for Dilution Antimicrobial Susceptibility Tests for Bacteria That Grow Aerobically”, 3rd. ed., published 1993 by the National Committee for Clinical Laboratory Standards, Villanova, Pa., USA.
# (§2) The in vitro MICs of test compounds were determined by a standard agar dilution method. A stock drug solution of each analog was prepared in the preferred solvent, usually DMSO: H2O (1:3). Serial 2-fold dilutions of each sample are made using 1.0 ml aliquots of sterile distilled water. To each 1.0 ml aliquot of drug was added 9 ml of molten Mueller Hinton agar medium. The drug-supplemented agar was mixed, poured into 15×100 mm petri dishes, and allowed to solidify and dry prior to inoculation.
# (§3) Vials of each of the test organisms are maintained frozen in the vapor phase of a liquid nitrogen freezer. Test cultures are grown overnight at 35° C. on the medium appropriate for the organism. Colonies are harvested with a sterile swab, and cell suspensions are prepared in Trypticase Soy broth (TSB) to equal the turbidity of a 0.5 McFarland standard. A 1:20 dilution of each suspension was made in TSB. The plates containing the drug supplemented agar are inoculated with a 0.001 ml drop of the cell suspension using a Steers replicator, yielding approximately 10^4 to 10^5 cells per spot. The plates are incubated overnight at 35° C.
# (§4) Following incubation the Minimum Inhibitory Concentration (MIC μg/ml), the lowest concentration of drug that inhibits visible growth of the organism, was read and recorded.
# [2] = tested on: SAUR 9213; assay: In vitro MIC by standard agar dilution method, SAUR 9213; format: cell-based, S. aureus; details: Staphylococcus aureus; agar dilution, Mueller Hinton agar, incubated overnight at 35° C.; lowest concentration that inhibits visible growth; read-out: SAUR 9213 MIC (Minimum Inhibitory Concentration)
# Excerpt: as §1, §2, §3, §4
# [3] = tested on: SPNE 9912; assay: In vitro MIC by standard agar dilution method, SPNE 9912; format: cell-based; details: agar dilution, Mueller Hinton agar, incubated overnight at 35° C.; lowest concentration that inhibits visible growth; read-out: SPNE 9912 MIC (Minimum Inhibitory Concentration)
# Excerpt: as §1, §2, §3, §4
Structure (SMILES),MIC [1],MIC [2],MIC [3]
"CC(=O)NC[C@H]1CN(c2ccc(N3CCN(C(=O)CCCC#Cc4ccc(CN)cc4)CC3)c(F)c2)C(=O)O1 [Compound 26, N-({(5S)-3-[4-(4-{6-[4-(aminomethyl)phenyl]hex-5-ynoyl}piperazin-1-yl)-3-fluorophenyl]-2-oxo-1,3-oxazolidin-5-yl}methyl)acetamide]",16 µg/mL,4 µg/mL,0.25 µg/mL
"CC(=O)NC[C@H]1CN(c2ccc(N3CCN(C(=O)CCCC#Cc4cccc(O)c4)CC3)c(F)c2)C(=O)O1 [Compound 27, N-{[(5S)-3-(3-fluoro-4-{4-[6-(3-hydroxyphenyl)hex-5-ynoyl]piperazin-1-yl}phenyl)-2-oxo-1,3-oxazolidin-5-yl]methyl}acetamide]",> 64 µg/mL,8 µg/mL,1 µg/mL
"CC(=O)NC[C@H]1CN(c2ccc(N3CCN(C(=O)CCC#Cc4cccc(O)c4)CC3)c(F)c2)C(=O)O1 [Compound 29, N-{[(5S)-3-(3-fluoro-4-{4-[5-(3-hydroxyphenyl)pent-4-ynoyl]piperazin-1-yl}phenyl)-2-oxo-1,3-oxazolidin-5-yl]methyl}acetamide]",> 64 µg/mL,4 µg/mL,1 µg/mL
"CC(=O)NC[C@H]1CN(c2ccc(N3CCN(C(=O)CCC#Cc4ccc(O)cc4)CC3)c(F)c2)C(=O)O1 [Compound 30, N-{[(5S)-3-(3-fluoro-4-{4-[5-(4-hydroxyphenyl)pent-4-ynoyl]piperazin-1-yl}phenyl)-2-oxo-1,3-oxazolidin-5-yl]methyl}acetamide]",64 µg/mL,4 µg/mL,1 µg/mL
"C#CCCCCC(=O)N1CCN(c2ccc(N3C[C@H](CNC(C)=O)OC3=O)cc2F)CC1 [Compound 31, N-({(5S)-3-[3-fluoro-4-(4-hept-6-ynoylpiperazin-1-yl)phenyl]-2-oxo-1,3-oxazolidin-5-yl}methyl)acetamide]",64 µg/mL,4 µg/mL,1 µg/mL

# Second part, the compound after the results:
MIC [1],MIC [2],MIC [3],Structure (SMILES)
64 µg/mL,4 µg/mL,2 µg/mL,"CC(=O)NC[C@H]1CN(c2ccc(N3CCN(C(=O)CCCCC#Cc4cccc(CN)c4)CC3)c(F)c2)C(=O)O1 [Compound 32, N-({(5S)-3-[4-(4-{7-[3-(aminomethyl)phenyl]hept-6-ynoyl}-piperazin-1-yl)-3-fluorophenyl]-2-oxo-1,3-oxazolidin-5-yl}methyl)acetamide]"
16 µg/mL,4 µg/mL,1 µg/mL,"CC(=O)NC[C@H]1CN(c2ccc(N3CCN(C(=O)CCC#Cc4cccc(CN)c4)CC3)c(F)c2)C(=O)O1 [Compound 33, N-({(5S)-3-[4-(4-{5-[3-(aminomethyl)phenyl]pent-4-ynoyl}piperazin-1-yl)-3-fluorophenyl]-2-oxo-1,3-oxazolidin-5-yl}-methyl)acetamide]"
